Source: ChEMBL document CHEMBL1152775, “Effect of 3,4-ethylenedioxy-extension of thiophene core on the DNA/RNA binding properties and biological activity of bisbenzimidazole amidines” (Bioorg Med Chem, 2009)
pIC50: −log10 of the molar value. Active and inactive are the calls of the source. The rule behind the calls is not given here.

Legend:
[1] = system: HeLa; experiment: Cell cycle distribution in human HeLa cells assessed as accumulation at G2/M phase at 1 uM after 48 hrs by propidium iodide-based flow cytometry; format: functional
[2] = system: HeLa; experiment: Cell cycle distribution in human HeLa cells assessed as accumulation at G0/G1 phase at 1 uM after 48 hrs by propidium iodide-based flow cytometry; format: functional
[3] = system: Trypanosoma cruzi; experiment: Antitrypanosomal activity against Trypanosoma cruzi clone 14 epimastigotes after 8 days; format: functional, organism-based; settings: 192 h
[4] = system: Nucleic Acid; experiment: Binding affinity to poly A-poly U double stranded RNA assessed as change in melting temperature at […] of 0.1 by thermal denaturation study; format: nucleic-acid assay
[5] = system: Calf thymus DNA; experiment: Binding affinity to calf thymus double stranded DNA assessed as change in melting temperature at drug to DNA ratio of 0.2 by thermal denaturation study; format: nucleic-acid assay; settings: Bos taurus
[6] = system: Calf thymus DNA; experiment: Binding affinity to calf thymus double stranded DNA minor groove at drug to DNA ratio of 0 to 0.2 by CD spectroscopy; format: nucleic-acid assay; settings: Bos taurus
[7] = system: NCI-H358; experiment: Antiproliferative activity against human NCI-H358 cells at 0.1 to 100 uM after 72 hrs by MTT assay; format: functional, cell-based
[8] = system: Caco-2; experiment: Antiproliferative activity against human Caco-2 cells at 0.1 to 100 uM after 72 hrs by MTT assay; format: functional, cell-based
[9] = system: HT-29; experiment: Antiproliferative activity against human HT-29 cells at 0.1 to 100 uM after 72 hrs by MTT assay; format: functional, cell-based
[10] = system: MIA PaCa-2; experiment: Antiproliferative activity against human MIAPaCa2 cells at 0.1 to 100 uM after 72 hrs by MTT assay; format: functional, cell-based
[11] = system: HeLa; experiment: Antiproliferative activity against human HeLa cells at 1 uM after 72 hrs by MTT assay relative to control; format: functional
[12] = system: AGS; experiment: Antiproliferative activity against human AGS cells at 0.1 to 100 uM after 72 hrs by MTT assay; format: functional, cell-based
[13] = system: Calf thymus DNA; experiment: Binding affinity to calf thymus double stranded DNA by UV visible spectroscopy; format: nucleic-acid assay; settings: Bos taurus
[14] = Binding affinity to poly A-poly U double stranded RNA by CD spectroscopy
[15] = system: HeLa; experiment: Cell cycle distribution in human HeLa cells assessed as accumulation at G2/M phase at 1 uM after 24 hrs by propidium iodide-based flow cytometry; format: functional
[16] = system: HeLa; experiment: Cell cycle distribution in human HeLa cells assessed as accumulation at G0/G1 phase at 1 uM after 72 hrs by propidium iodide-based flow cytometry; format: functional
[17] = system: HeLa; experiment: Cell cycle distribution in human HeLa cells assessed as accumulation at G2/M phase at 1 uM after 72 hrs by propidium iodide-based flow cytometry; format: functional
[18] = Binding affinity to poly A-poly U double stranded RNA by UV visible spectroscopy
[19] = system: Trypanosoma cruzi; experiment: Antitrypanosomal activity against Trypanosoma cruzi clone 14 epimastigotes on day 5; format: functional, organism-based; settings: 120 h
[20] = system: Calf thymus DNA; experiment: Binding affinity to calf thymus double stranded DNA assessed as change in melting temperature at drug to DNA ratio of 0.1 by thermal denaturation study; format: nucleic-acid assay; settings: Bos taurus
[21] = system: Nucleic Acid; experiment: Binding affinity to poly A-poly U double stranded RNA assessed as change in melting temperature at […] of 0.2 by thermal denaturation study; format: nucleic-acid assay
[22] = system: HeLa; experiment: Antiproliferative activity against human HeLa cells at 0.1 to 100 uM after 72 hrs by MTT assay; format: functional, cell-based
[23] = system: HEp-2; experiment: Antiproliferative activity against human Hep2 cells at 1 uM after 72 hrs by MTT assay relative to control; format: functional; settings: HEp-2, 72 h
[24] = system: HeLa; experiment: Cell cycle distribution in human HeLa cells assessed as accumulation at S phase at 1 uM after 72 hrs by propidium iodide-based flow cytometry; format: functional
[25] = species on record: Bos taurus; experiment: Ratio of IC50 of ethidium bromide to IC50 of drug for calf thymus DNA by ethidium bromide displacement assay
[26] = system: HeLa; experiment: Cell cycle distribution in human HeLa cells assessed as accumulation at S phase at 1 uM after 48 hrs by propidium iodide-based flow cytometry; format: functional
[27] = system: MCF7; experiment: Antiproliferative activity against human MCF7 cells at 0.1 uM after 72 hrs by MTT assay relative to control; format: functional; settings: MCF7, 72 h
[28] = system: MCF7; experiment: Antiproliferative activity against human MCF7 cells at 0.1 to 100 uM after 72 hrs by MTT assay; format: functional, cell-based
[29] = system: Calf thymus DNA; experiment: Binding affinity to calf thymus double stranded DNA assessed as change in melting temperature at drug to DNA ratio of 0.05 by thermal denaturation study; format: nucleic-acid assay; settings: Bos taurus
[30] = system: HEp-2; experiment: Antiproliferative activity against human Hep2 cells at 0.1 to 100 uM after 72 hrs by MTT assay; format: functional, cell-based
[31] = system: Nucleic Acid; experiment: Binding affinity to poly A-poly U double stranded RNA assessed as change in melting temperature at […] of 0.3 by thermal denaturation study; format: nucleic-acid assay
[32] = system: Calf thymus DNA; experiment: Binding affinity to calf thymus double stranded DNA assessed as change in melting temperature at drug to DNA ratio of 0.3 by thermal denaturation study; format: nucleic-acid assay; settings: Bos taurus
[33] = system: HeLa; experiment: Cell cycle distribution in human HeLa cells assessed as accumulation at S phase at 10 uM after 72 hrs by propidium iodide-based flow cytometry; format: functional
[34] = system: HeLa; experiment: Cell cycle distribution in human HeLa cells assessed as accumulation at G2/M phase at 10 uM after 24 hrs by propidium iodide-based flow cytometry; format: functional
[35] = system: HeLa; experiment: Cell cycle distribution in human HeLa cells assessed as accumulation at G2/M phase at 10 uM after 48 hrs by propidium iodide-based flow cytometry; format: functional
[36] = system: HeLa; experiment: Cell cycle distribution in human HeLa cells assessed as accumulation at S phase at 10 uM after 48 hrs by propidium iodide-based flow cytometry; format: functional
[37] = system: HeLa; experiment: Cell cycle distribution in human HeLa cells assessed as accumulation at G2/M phase at 10 uM after 72 hrs by propidium iodide-based flow cytometry; format: functional
[38] = system: HeLa; experiment: Cell cycle distribution in human HeLa cells assessed as accumulation at G0/G1 phase at 10 uM after 48 hrs by propidium iodide-based flow cytometry; format: functional
[39] = system: HeLa; experiment: Cell cycle distribution in human HeLa cells assessed as accumulation at G0/G1 phase at 10 uM after 72 hrs by propidium iodide-based flow cytometry; format: functional

CC(C)NC(=N)c1ccc2nc(-c3sc(-c4nc5ccc(C(=N)NC(C)C)cc5[nH]4)c4c3OCCO4)[nH]c2c1.Cl.Cl
Activity [1]: 35% | Activity [2]: 46.9% | pIC50 [3]: 5.62 | ΔTm [4]: 0.9 °C | ΔTm [5]: > 15.4 °C | Activity [6]: Active | Activity [7]: Active | Activity [8]: Active | Activity [9]: Active | Activity [10]: Active | inhibition at 1 µM [11]: 40% | Activity [12]: Active | Activity [13]: Active | Activity [14]: Active | Activity [15]: Active | Activity [16]: 30.7% | Activity [17]: 15.2% | Activity [18]: Active | pIC50 [19]: 5.37 | ΔTm [20]: > 15.4 °C | ΔTm [21]: 0.8 °C | Activity [22]: Active | inhibition at 1 µM [23]: 80% | Activity [24]: 49.8% | Ratio IC50 [25]: 0.38 | Activity [26]: 22.4% | inhibition at 0.1 µM [27]: 40% | Activity [28]: Active | ΔTm [29]: 11.7 °C | Activity [30]: Active

N=C(N)c1ccc2nc(-c3sc(-c4nc5ccc(C(=N)N)cc5[nH]4)c4c3OCCO4)[nH]c2c1
ΔTm [5]: 13.9 °C | ΔTm [31]: -0.9 °C | Activity [6]: Active | ΔTm [32]: 12.9 °C | Activity [13]: Active | Activity [14]: Active | Activity [18]: Active | ΔTm [20]: 14.4 °C | ΔTm [21]: -0.3 °C | Ratio IC50 [25]: 0.48 | Activity [28]: Active | ΔTm [29]: 12.7 °C

CN1CCN(c2ccc3[nH]c(-c4ccc5[nH]c(-c6ccc(O)cc6)nc5c4)nc3c2)CC1 [HOECHST 33258]
Activity [33]: 46.3% | Activity [34]: inactive | Activity [35]: 23.9% | Activity [36]: 23.4% | Activity [37]: 29.9% | Activity [38]: 33.6% | Activity [39]: 43.1% | Activity [28]: Active

c1cc2nc(-c3sc(-c4nc5ccc(C6=NCCN6)cc5[nH]4)c4c3OCCO4)[nH]c2cc1C1=NCCN1
ΔTm [4]: 0.4 °C | ΔTm [5]: 11.4 °C | ΔTm [31]: -0.2 °C | Activity [6]: Active | ΔTm [32]: 12.3 °C | Activity [13]: Active | Activity [14]: Active | Activity [18]: Active | ΔTm [20]: 11.9 °C | ΔTm [21]: 0.3 °C | Ratio IC50 [25]: 0.38 | Activity [28]: Active | ΔTm [29]: 12.2 °C
